Here are results for one compound from patent publication US6303617A, “Serotonin-like 9-substituted hypoxanthine and methods of use” (Neotherapeutics, Inc., priority 1999, dated 2001).

Broadly, the IC50 is the concentration needed to halve the response being measured.

Assay [1] deals with monoamine oxidase A/B. Put plainly: Inhibition of monoamine oxidase A/B catalytic activity (mouse brain mitochondria, tyramine substrate). The assay is classed as biochemical. How it is done: Experiments were carried out to determine whether the serotonin analogue N-(2-(5-hydroxyindol-3-yl)ethyl)-3-(6-oxohydropurin-9-yl)propanamide (AIT-202) inhibited monoamine oxidases A and B. These experiments were performed as follows:
Mice (3-5 mice) were sacrificed by cervical dislocation. The brains were isolated and placed immediately in 10 ml cold isolation medium (IM) (500 μM EDTA, 5 mM HEPES, 0.25 M sucrose, and 10 mg/L bovine serum albumin (BSA)). The brains were minced and rinsed twice with 10 mL IM. The brains were then homogenized (5-6 strokes) in 10 mL IM. A volume (20 mL) of IM was then added and the homogenized preparation was centrifuged 8-10 minutes at 600×g at 4° C. The supernatant was transferred to a new tube. […]
For the enzyme assays, 1.0 mL to 1.5 mL 50 mM sodium phosphate, pH 7.4 containing 5 μM scopoletin and 2 U/mL horseradish peroxidase) were aliquoted in the wells of a Falcon 24-well plate (reaction mixture or RM). […] The preincubation was carried out in the Cytofluor® 4000 (PerSeptive Biosystems) and the baseline fluorescence at λex =360 nm and λem =460 nm was recorded. After 6 min, the reading was interrupted and 150-166 μM tyramine (monoamine oxidase A and monoamine oxidase B substrate) or the corresponding amount of water were added according to the plate layout. The reading was continued for approximately 30 minutes at 3-minute intervals. […]

In assay [2] the test system is obese mice. The experiment in a line: Control of obesity in naturally obese mice, 14 days oral. Type of assay: in vivo, mouse. The following applies: naturally obese mice (>45 g), daily oral gavage, three doses, FIG. 4. As to the method: The activity of N-(2-(5-hydroxyindol-3-yl)ethyl)-3-(6-oxohydropurin-9-yl)propanamide (AIT-202) in controlling obesity in mice was tested. Mice from the existing animal colony of NeoTherapeutics (Irvine, Calif.) which were naturally obese (greater than 45 grams in weight) were treated with N-(2-(5-hydroxyindol-3-yl)ethyl)-3-(6-oxohydropurin-9-yl)propanamide daily orally by gavage for 14 days. The mice were dosed with one of three doses of N-(2-(5-hydroxyindol-3-yl)ethyl)-3-(6-oxohydropurin-9-yl)propanamide or vehicle (0.5% methylcellulose). Their weight and food consumption were monitored daily.

Assay [3] deals with total serum cholesterol. The experiment in a line: Lowering of total serum cholesterol in mice. The following applies: 300 mg/kg oral, 24 hours before determination; 5 mice; vs control group; decrease of 15% or more considered significant. Type of assay: in vivo, mouse. As to the method:
The activity of N-(2-(5-hydroxyindol-3-yl)ethyl)-3-(6-oxohydropurin-9-yl)propanamide (AIT-202) in lowering total serum cholesterol was tested in mice. Mice (5 mice) were administered N-(2-(5-hydroxyindol-3-yl)ethyl)-3-(6-oxohydropurin-9-yl)propanamide orally at a dosage of 300 mg/kg body weight for 24 hours before cholesterol determination. Total serum cholesterol was determined by standard methods. […] A decrease of 15% or more is considered significant in this test.

Assay [4] has as its system total serum cholesterol. Put plainly: Total serum cholesterol in Swiss Webster mice fed a high cholesterol or normal diet. The assay is classed as in vivo. The following applies: dosed on days 6 and 7 of diet, serum on day 8; FIG. 5. How it is done: (§1) On days 6 and 7 the mice were given the compound N-(2-(5-hydroxyindol-3-yl)ethyl)-3-(6-oxohydropurin-9-yl)propanamide (AIT-202), a positive control (bezafibrate), or a vehicle. The animals were fasted overnight and on day 8 trunk blood was collected. Total cholesterol and HDL cholesterol were measured in serum.

Assay [5] deals with HDL cholesterol. The experiment in a line: HDL cholesterol in serum of Swiss Webster mice fed a high cholesterol or normal diet. The following applies: dosed on days 6 and 7 of diet, serum on day 8; FIG. 5. Type of assay: in vivo. As to the method:
as §1

In the case of `O=C(CCn1cnc2c(=O)[nH]cnc21)NCCc1c[nH]c2ccc(O)cc12` [AIT-202, N-(2-(5-hydroxyindol-3-yl)ethyl)-3-(6-oxohydropurin-9-yl)propanamide], the “effect on the catalytic activity of monoamine oxidase A and B” value in assay [1] (2-150 μM compound, tyramine substrate, FIGS. 2 and 3) was “significant effect”. Moreover, the IC50 in assay [1] (estimated, mouse brain mitochondrial protein 0.22-0.24 mg/mL, 150-166 μM tyramine, pH 7.4, 37° C.) is approximately 2000 nM. For the same compound, in assay [2], the “benefit to treatment in obese mice” value was “There appears to be benefit to treatment”. Further, the “decrease of total serum cholesterol” value in assay [3] was determined as 18%. Moreover, in assay [4], the “effect on total serum cholesterol” value is on record as “lowers total serum cholesterol”. Also, the “effect on HDL cholesterol” value in assay [5] is reported as “raises HDL cholesterol”.
